{"source": "ChEMBL document CHEMBL1201862", "about": "“PubChem BioAssay data set” (2004)", "key": {"[1]": {"assay": "Luminescence-based cell-based high throughput dose response assay to identify activators of the DAF-12 from the parasite S. stercoralis (ssDAF-12).", "type": "functional"}, "[2]": {"target": "T1, Oxysterols receptor LXR-beta (Homo sapiens, UniProt P55055)", "T1 sequence (P55055 whole entry)": "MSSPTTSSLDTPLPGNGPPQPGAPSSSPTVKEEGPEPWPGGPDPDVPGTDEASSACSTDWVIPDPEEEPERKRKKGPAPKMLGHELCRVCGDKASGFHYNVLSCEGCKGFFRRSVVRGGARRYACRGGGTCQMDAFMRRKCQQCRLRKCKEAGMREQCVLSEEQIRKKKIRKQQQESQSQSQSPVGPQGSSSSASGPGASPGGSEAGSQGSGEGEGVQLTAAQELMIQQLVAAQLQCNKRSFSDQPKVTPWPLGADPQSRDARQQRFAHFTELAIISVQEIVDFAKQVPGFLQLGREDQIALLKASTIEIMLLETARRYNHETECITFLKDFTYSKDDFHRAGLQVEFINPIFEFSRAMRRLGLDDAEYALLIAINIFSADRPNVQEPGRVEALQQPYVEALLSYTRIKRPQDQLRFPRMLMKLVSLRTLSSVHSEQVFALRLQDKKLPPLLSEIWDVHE", "assay": "LXR agonists, Gal4 luciferase reporter, dose response, counter-screen for ssDAF-12 agonist project, cell-based, luminescence, HEK293, S. stercoralis campaign (AID 720737)", "type": "functional", "details": "read-out: IC50 (the source's name)"}, "[3]": {"assay": "viability loss in human Jurkat cells – cell-based, luminescence, cytotoxicity control for P. falciparum gametocyte viability project, dose response (AID 1117277);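 note: potency reflects loss of cellular ATP meaning fewer viable cells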", "type": "functional"}, "[4]": {"assay": "viability inhibitors of stage V gametocytes – luminescence, dose response (AID 1117278);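 note: gametocytes exposed to compound for 24 hours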", "type": "functional, cell-based"}, "[5]": {"assay": "M. tuberculosis growth inhibition, HTS (AID 449762)", "type": "functional"}, "[6]": {"target": "Disintegrin and metalloproteinase domain-containing protein 17 (Homo sapiens, UniProt P78536)", "sequence (P78536 whole entry, the tested form may be a part)": "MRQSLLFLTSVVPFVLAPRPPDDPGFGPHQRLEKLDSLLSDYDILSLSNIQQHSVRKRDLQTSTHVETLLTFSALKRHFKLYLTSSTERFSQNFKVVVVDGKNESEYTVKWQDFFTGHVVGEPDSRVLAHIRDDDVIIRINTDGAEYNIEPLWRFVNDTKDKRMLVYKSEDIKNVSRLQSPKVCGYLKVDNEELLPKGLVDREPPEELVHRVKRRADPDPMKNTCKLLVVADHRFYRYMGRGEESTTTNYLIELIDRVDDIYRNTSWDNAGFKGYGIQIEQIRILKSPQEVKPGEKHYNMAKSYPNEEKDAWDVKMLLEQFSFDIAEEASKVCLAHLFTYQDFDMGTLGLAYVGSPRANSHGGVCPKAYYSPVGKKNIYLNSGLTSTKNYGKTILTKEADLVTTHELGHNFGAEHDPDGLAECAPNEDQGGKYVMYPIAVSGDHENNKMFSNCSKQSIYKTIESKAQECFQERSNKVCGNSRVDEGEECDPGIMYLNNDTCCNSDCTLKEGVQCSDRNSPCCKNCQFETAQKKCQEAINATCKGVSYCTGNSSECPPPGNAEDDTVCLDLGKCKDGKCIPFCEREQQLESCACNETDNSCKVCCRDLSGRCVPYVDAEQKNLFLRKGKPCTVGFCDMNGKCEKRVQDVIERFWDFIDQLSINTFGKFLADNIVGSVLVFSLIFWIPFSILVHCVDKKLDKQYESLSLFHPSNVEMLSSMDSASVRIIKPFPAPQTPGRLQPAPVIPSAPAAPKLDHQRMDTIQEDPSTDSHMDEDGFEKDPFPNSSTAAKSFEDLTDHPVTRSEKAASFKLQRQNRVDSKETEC", "assay": "inhibition of ADAM17 substrate cleavage – biochemical, quenched FRET substrate, counter-screen for ADAM10 exosite inhibitor project, dose response (AID 743253)"}, "[7]": {"target": "T2, Heat shock factor protein 1 (Mus musculus, UniProt P38532)", "T2 sequence (P38532 whole entry)": "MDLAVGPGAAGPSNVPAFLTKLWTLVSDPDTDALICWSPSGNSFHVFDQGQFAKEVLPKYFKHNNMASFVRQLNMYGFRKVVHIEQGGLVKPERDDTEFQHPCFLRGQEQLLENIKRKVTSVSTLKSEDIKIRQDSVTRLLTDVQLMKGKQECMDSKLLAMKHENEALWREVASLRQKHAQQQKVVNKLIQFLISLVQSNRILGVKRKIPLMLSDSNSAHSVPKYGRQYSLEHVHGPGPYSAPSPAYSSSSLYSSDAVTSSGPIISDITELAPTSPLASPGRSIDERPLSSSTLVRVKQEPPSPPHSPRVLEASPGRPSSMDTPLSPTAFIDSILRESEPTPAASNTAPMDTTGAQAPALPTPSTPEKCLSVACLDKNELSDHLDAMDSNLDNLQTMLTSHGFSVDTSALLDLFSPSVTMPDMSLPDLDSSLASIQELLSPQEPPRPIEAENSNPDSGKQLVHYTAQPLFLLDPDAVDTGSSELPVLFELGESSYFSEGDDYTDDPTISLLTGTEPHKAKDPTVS", "assay": "enhancement of HSF1-driven luciferase signal – cell-based, NIH3T3, luminescence, dose retest, confirmation (AID 435004);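 note: stress induced by proteasome inhibitor MG132 added 30 min after compound; actives raise luminescence as potentiators of the MG132 stress response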", "type": "functional"}, "[8]": {"assay": "potency of ADAM10 substrate cleavage blockers – biochemical, QFRET, dose response (AID 743254);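 note: ADAM10 enzyme with the DM2 quenched FRET peptide as substrate; EDANS fluorescence gain as the protease cuts the substrate; inhibitor potency against ADAM10 proteolytic activity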"}, "[9]": {"assay": "COV362 cell viability loss – plate reader, dry powder, SA12, cytotoxicity control for PAX8 inhibitor project, dose response (AID 743144)", "type": "functional, cell-based"}, "[10]": {"assay": "OVCAR-3 cell viability loss – plate reader, dry powder samples, PAX8 inhibitor project, dose response (AID 743044)", "type": "functional, cell-based"}, "[11]": {"assay": "toxicity toward immortalized ovarian surface epithelium – cell-based, plate reader, dry powder samples, cytotoxicity control for PAX8 inhibitor project, dose response (AID 743045)", "type": "functional"}, "[12]": {"assay": "OV-90 cell viability loss – plate reader, dry powder, SA8, PAX8 inhibitor project, dose response (AID 743149)", "type": "functional, cell-based"}, "[13]": {"assay": "IGROV1 cell killing – plate reader, dry powder samples, PAX8 inhibitor project, dose response (AID 743043)", "type": "functional, cell-based", "details": "IGROV-1"}, "[14]": {"assay": "OVCAR4 cell viability loss – plate reader, dry powder, SA11, cytotoxicity control for PAX8 inhibitor project, dose response (AID 743150)", "type": "functional, cell-based", "details": "OVCAR-4"}, "[15]": {"assay": "A2780 cell killing – plate reader, dry powder samples, cytotoxicity control, dose response (AID 743046)", "type": "functional, cell-based"}, "[16]": {"assay": "PAX8-dependent cell viability loss – plate reader, dry powder, dose response (AID 743049)", "type": "functional, cell-based"}, "[17]": {"assay": "COV434 cell viability loss – plate reader, dry powder, SA7, cytotoxicity control for PAX8 inhibitor project, dose response (AID 743145)", "type": "functional, cell-based"}, "Paired box protein Pax-8": {"target": "Paired box protein Pax-8 (Homo sapiens, UniProt Q06710)", "sequence (Q06710 whole entry)": "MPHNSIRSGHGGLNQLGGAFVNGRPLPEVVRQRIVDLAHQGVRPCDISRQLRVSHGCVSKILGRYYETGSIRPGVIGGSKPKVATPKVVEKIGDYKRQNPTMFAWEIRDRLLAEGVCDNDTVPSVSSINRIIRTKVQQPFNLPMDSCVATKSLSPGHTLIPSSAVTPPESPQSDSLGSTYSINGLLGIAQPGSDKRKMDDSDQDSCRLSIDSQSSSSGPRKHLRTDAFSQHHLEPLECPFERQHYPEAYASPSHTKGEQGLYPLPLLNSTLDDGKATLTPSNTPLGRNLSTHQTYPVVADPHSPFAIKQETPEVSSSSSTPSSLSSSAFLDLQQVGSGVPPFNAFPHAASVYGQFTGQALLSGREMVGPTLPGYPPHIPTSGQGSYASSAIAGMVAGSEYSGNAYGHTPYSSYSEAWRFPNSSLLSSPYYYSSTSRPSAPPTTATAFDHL", "assay": "PAX8 transcriptional activity inhibition in RMG-I – RMG-I cells, luciferase, cherry-pick, dose response (AID 687027);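 note: luciferase reporter driven by Pax8 target thyroperoxidase promoter measured by SteadyGlo luminescence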", "type": "functional, cell-based"}, "[18]": {"target": "COUP transcription factor 2 (Homo sapiens, UniProt P24468)", "sequence (P24468 whole entry)": "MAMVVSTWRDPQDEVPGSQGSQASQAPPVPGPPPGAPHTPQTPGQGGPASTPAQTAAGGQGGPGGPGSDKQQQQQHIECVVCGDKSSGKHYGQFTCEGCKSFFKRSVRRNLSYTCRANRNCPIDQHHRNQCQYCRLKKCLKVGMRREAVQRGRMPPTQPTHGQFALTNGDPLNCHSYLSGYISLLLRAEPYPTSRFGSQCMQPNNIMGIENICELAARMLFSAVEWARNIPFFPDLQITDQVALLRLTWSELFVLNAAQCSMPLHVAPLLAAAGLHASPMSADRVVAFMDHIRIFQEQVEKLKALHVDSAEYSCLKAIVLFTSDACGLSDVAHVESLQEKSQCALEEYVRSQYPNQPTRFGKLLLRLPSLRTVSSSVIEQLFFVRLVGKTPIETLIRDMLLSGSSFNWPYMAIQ", "assay": "Luminescence-based cell-based high throughput dose response assay to identify inhibitors of COUP-TFII (NR2F2).", "type": "functional"}, "[19]": {"assay": "loss of viability in HepG2 cells – cell-based, CellTiter-Glo, cherry-picked, cytotoxicity control for Shn3 inhibitor project, dose response (AID 624134)", "type": "functional"}, "[20]": {"assay": "non-specific 3'UTR reporter inhibition in Clone20-Shn3RL – cell-based, Renilla luciferase, cherry-picked, counter-screen for Shn3 inhibitor project, dose response (AID 624133)", "type": "functional"}, "[21]": {"assay": "reduction of Shn3 3'UTR-driven luciferase in osteoblasts – cell-based, Clone20 osteoblasts, firefly luciferase, cherry-picked, dose response (AID 624132)", "type": "functional"}, "[22]": {"target": "NAD-dependent protein deacylase sirtuin-5, mitochondrial (Homo sapiens, UniProt Q9NXA8)", "sequence (Q9NXA8 whole entry)": "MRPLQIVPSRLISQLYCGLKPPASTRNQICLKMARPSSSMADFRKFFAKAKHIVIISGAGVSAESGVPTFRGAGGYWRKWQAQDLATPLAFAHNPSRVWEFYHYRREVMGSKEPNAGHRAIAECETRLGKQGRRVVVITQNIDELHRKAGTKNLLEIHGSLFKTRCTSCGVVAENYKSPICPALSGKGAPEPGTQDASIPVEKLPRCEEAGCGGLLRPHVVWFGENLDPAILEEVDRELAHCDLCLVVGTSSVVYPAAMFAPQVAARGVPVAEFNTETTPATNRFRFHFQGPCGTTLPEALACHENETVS", "assay": "sirtuin-5 deacylation blockers, concentration series – biochemical, fluorescence imaging, cherry-pick, set 5, dose response (AID 720591);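 note: desuccinylation of succinyl peptide AMC substrate read as fluorescence after trypsin release; potency of inhibitors that lower fluorescence and may act on trypsin instead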"}, "[23]": {"assay": "YAP1 overexpression rescue of CTGF inhibition – DLD1 cells, RT-qPCR, cherry-pick, mechanism study for YAP1 pathway inhibitor project, dose response (AID 1053127)", "type": "functional, cell-based", "details": "DLD-1"}, "[24]": {"assay": "OVCAR8 cell viability loss – plate reader, dry powder samples, PAX8 project, dose response (AID 743197)", "type": "functional, cell-based", "details": "OVCAR-8"}, "[25]": {"assay": "CTGF mRNA reduction in DLD1 cells – cell-based, DLD1 colon cancer, RT-qPCR, cherry-pick, dose response (AID 1053122)", "type": "functional", "details": "Cancer cell lines"}, "[26]": {"assay": "cytotoxicity toward HCT116 cells – cell-based, CellTiter-Glo luminescence, IC50, dose response (AID 1117332)", "type": "functional", "details": "HCT-116"}, "[27]": {"assay": "cytotoxicity toward Colo320 cells – cell-based, CellTiter-Glo luminescence, IC50, dose response (AID 1117334)", "type": "functional", "details": "COLO 320"}, "[28]": {"assay": "SNU-C1 cell viability reduction, dose response, CellTiter-Glo luminescence (AID 1117323)", "type": "functional, cell-based"}, "[29]": {"assay": "RKO cell viability reduction, dose response, CellTiter-Glo luminescence (AID 1117322)", "type": "functional"}, "[30]": {"assay": "CellTiter-Glo luminescence survival assay, SW480 colon tumor line, concentration-response curve, half-maximal inhibitory concentration (AID 1117338)", "type": "functional"}, "[31]": {"assay": "HCT116 cell viability decrease, GSK3B pretreatment – CellTiter-Glo, IC50, dose response (AID 1117339)", "type": "functional", "details": "HCT-116"}, "[32]": {"assay": "cytotoxicity toward HT-29 cells – cell-based, CellTiter-Glo luminescence, IC50, dose response (AID 1117330)", "type": "functional"}, "[33]": {"assay": "Reduced DLD-1 viability, concentration-response, CellTiter-Glo luminescence (AID 1117352)", "type": "functional"}, "[34]": {"target": "Heat shock protein HSP 90-alpha (Homo sapiens, UniProt P07900)", "assay": "Luminescence-based dose response biochemical high throughput screening assay for inhibitors of the Heat Shock Protein 90 (HSP90). [Related pubchem assays: 1831 (Summary AID.), 1846 (Confirmation screen.), 1789 (Primary screen.)]"}}, "note": "The source made the active and inactive calls."}
{"compound": "Cc1ccc([N+](=O)[O-])c2c1C(N1CC(C)OC(C)C1)C(C)(C)O2", "note": "(stereo not drawn)", "values": [{"measurement": "IC50", "setting": "[1]", "result": "> 67.6 µM (inactive)"}, {"measurement": "EC50", "setting": "[2]", "result": "> 67.6 µM (inactive)"}]}
{"compound": "CC(=O)c1ccc(NC(=O)c2ccc(S(=O)(=O)c3ccccc3)cc2)cc1", "values": [{"measurement": "IC50", "setting": "[3]", "result": "> 83.3 µM (inactive)"}, {"measurement": "IC50", "setting": "[4]", "result": "> 109 µM (inactive)"}]}
{"compound": "O=C(COc1cc(O)c2c(=O)c3ccccc3oc2c1)OCc1ccccc1", "values": [{"measurement": "IC50", "setting": "[5]", "result": "> 100 µM (active)"}]}
{"compound": "O=C(Nc1cccc(Cl)c1)c1cc(S(=O)(=O)NCCc2ccc(Cl)cc2)ccc1F", "values": [{"measurement": "IC50", "setting": "[6]", "result": "> 69.5 µM (inactive)"}, {"measurement": "EC50", "setting": "[7]", "result": "> 260 µM (inactive)"}, {"measurement": "IC50", "setting": "[8]", "result": "> 7.72 µM (active)"}]}
{"compound": "O=C(CCCN1C(=O)/C(=C\\c2cccc(Br)c2)SC1=S)Nc1cccnc1", "values": [{"measurement": "AC50", "setting": "[9]", "result": "30.3 µM (active)"}, {"measurement": "AC50", "setting": "[10]", "result": "12 µM (active)"}, {"measurement": "AC50", "setting": "[11]", "result": "24.8 µM (active)"}, {"measurement": "AC50", "setting": "[12]", "result": "25.7 µM (active)"}, {"measurement": "AC50", "setting": "[13]", "result": "12.5 µM (active)"}, {"measurement": "AC50", "setting": "[14]", "result": "30.3 µM (active)"}, {"measurement": "AC50", "setting": "[15]", "result": "17.9 µM (active)"}, {"measurement": "AC50", "setting": "[16]", "result": "12.1 µM (active)"}, {"measurement": "AC50", "setting": "[17]", "result": "31.6 µM (active)"}, {"measurement": "AC50", "setting": "Paired box protein Pax-8", "result": "7.56 µM (active)"}]}
{"compound": "Cn1c(=O)c2nc(CCCCCCCCc3nc4ccccc4[nH]3)[nH]c2n(C)c1=O", "values": [{"measurement": "IC50", "setting": "[18]", "result": "7.5 µM (active)"}, {"measurement": "AC50", "setting": "[19]", "result": "3.88 µM (active)"}, {"measurement": "AC50", "setting": "[20]", "result": "2.89 µM (active)"}, {"measurement": "AC50", "setting": "[21]", "result": "3.98 µM (active)"}]}
{"compound": "CN(C)CCN1CCN(C2CN(Cc3cn(Cc4cccc(Cl)c4)nn3)S(=O)(=O)C2)CC1", "note": "(stereo not drawn)", "values": [{"measurement": "AC50", "setting": "[22]", "result": "> 30 µM (inactive)"}]}
{"compound": "O=C(Cc1ccncc1)N1CCCCN2[C@H](C1)[C@H](c1ccc(C#Cc3ccccc3F)cc1)[C@@H]2CO", "values": [{"measurement": "AC50", "setting": "[10]", "result": "3.05 µM (active)"}, {"measurement": "AC50", "setting": "[23]", "result": "0.102 µM (active)"}, {"measurement": "AC50", "setting": "[24]", "result": "> 70 µM (inactive)"}, {"measurement": "AC50", "setting": "[13]", "result": "10.3 µM (active)"}, {"measurement": "AC50", "setting": "[25]", "result": "0.175 µM (active)"}, {"measurement": "AC50", "setting": "Paired box protein Pax-8", "result": "7.15 µM (active)"}]}
{"compound": "COC(=O)CCCCC(CCSS/C(CCO)=C(\\C)N(C=O)Cc1cnc(C)nc1N)SC(C)=O", "note": "(stereo not drawn)", "values": [{"measurement": "IC50", "setting": "[26]", "result": "> 20 µM (inactive)"}, {"measurement": "IC50", "setting": "[27]", "result": "> 20 µM (inactive)"}, {"measurement": "IC50", "setting": "[28]", "result": "> 20 µM (inactive)"}, {"measurement": "IC50", "setting": "[29]", "result": "> 20 µM (inactive)"}, {"measurement": "IC50", "setting": "[30]", "result": "> 20 µM (inactive)"}, {"measurement": "IC50", "setting": "[31]", "result": "> 20 µM (inactive)"}, {"measurement": "IC50", "setting": "[32]", "result": "> 20 µM (inactive)"}, {"measurement": "IC50", "setting": "[33]", "result": "> 20 µM (inactive)"}]}
{"compound": "CC(=O)c1ccc(N=Nc2c(C)[nH]n(-c3ccccc3)c2=O)cc1", "values": [{"measurement": "IC50", "setting": "[34]", "result": "4.4 µM (active)"}]}
